For 24 compounds, IC50 results are on record in patent publication US10239843B2 (CANCER RESEARCH TECHNOLOGY LIMITED, priority 2014, dated 2019).

Like-named read-outs stand apart in the source and are kept apart here.

In one assay the target is Human Full Length PARG (Homo sapiens (Human), UniProt Q86W56). Description: PARG enzyme assay (TR-FRET). In kind it is biochemical. The note with it: read-out: PARG Biochem IC50. (In TR-FRET formats the signal depends on donor and acceptor labels being close together.)
The test system of another assay is PARG in HeLa cell line. Briefly: PARG cell assay (PAR chain immunofluorescence after MMS). Format: cell-based. The note with it: HeLa cells, MMS treatment, read-out: PARG Cell IC50. In a few lines:
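Nuclear poly(ADP-ribose) chains in HeLa cells are read by indirect immunofluorescence with a mouse anti-PAR antibody applied overnight at 4° C after fixing and permeabilising. Cells get 1 h of compound, then 50 μg/mL MMS (final) for another hour. PAR persisting at that point reflects PARG inhibition.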

Chain of Human Full Length PARG (Q86W56 whole entry): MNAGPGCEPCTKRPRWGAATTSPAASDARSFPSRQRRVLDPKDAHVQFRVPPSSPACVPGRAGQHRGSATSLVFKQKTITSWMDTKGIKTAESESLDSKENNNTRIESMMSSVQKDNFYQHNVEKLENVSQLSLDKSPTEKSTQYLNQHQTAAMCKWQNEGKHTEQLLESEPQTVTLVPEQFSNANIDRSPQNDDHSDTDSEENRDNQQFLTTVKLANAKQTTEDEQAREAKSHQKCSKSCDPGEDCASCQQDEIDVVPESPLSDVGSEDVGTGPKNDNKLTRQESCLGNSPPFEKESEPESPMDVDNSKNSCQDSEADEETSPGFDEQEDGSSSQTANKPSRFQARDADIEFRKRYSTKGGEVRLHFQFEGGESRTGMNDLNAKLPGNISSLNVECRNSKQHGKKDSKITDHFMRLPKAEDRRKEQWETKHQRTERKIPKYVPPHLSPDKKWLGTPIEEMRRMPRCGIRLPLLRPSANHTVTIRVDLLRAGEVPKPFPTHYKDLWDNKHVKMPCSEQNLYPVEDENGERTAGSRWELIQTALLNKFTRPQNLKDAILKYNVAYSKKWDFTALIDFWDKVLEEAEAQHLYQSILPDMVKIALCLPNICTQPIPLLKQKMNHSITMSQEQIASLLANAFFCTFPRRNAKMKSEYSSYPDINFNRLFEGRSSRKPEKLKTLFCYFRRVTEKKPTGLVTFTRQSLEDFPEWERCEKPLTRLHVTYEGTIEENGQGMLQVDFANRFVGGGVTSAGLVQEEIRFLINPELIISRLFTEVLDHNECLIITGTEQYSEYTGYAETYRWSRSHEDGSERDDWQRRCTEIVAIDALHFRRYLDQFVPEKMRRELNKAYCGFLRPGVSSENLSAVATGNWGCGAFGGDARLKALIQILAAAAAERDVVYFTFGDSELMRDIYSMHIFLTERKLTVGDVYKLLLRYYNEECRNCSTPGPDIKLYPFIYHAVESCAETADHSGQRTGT

In general, IC50 refers to the midpoint of a concentration-inhibition curve. As for `Cc1cc(Cn2c(=O)c3cc(S(=O)(=O)NC4(CF)CC4)ccc3n(Cc3ncn(C)n3)c2=O)on1` [Example 553, N-[1-(Fluoromethyl)cyclopropyl]-3-[(3-methylisoxazol-5-yl)methyl]-1-[(1-methyl-1,2,4-triazol-3-yl)methyl]-2,4-dioxo-quinazoline-6-sulfonamide], the IC50 on Human Full Length PARG is 0.451 µM; in the assay with PARG in HeLa cell line, 1.51 µM.
In the case of `Cc1cc(Cn2c(=O)c3cc(S(=O)(=O)NC4(CF)CC4)ccc3n(Cc3nc(C)nn3C)c2=O)on1` [Example 554, 1-[(2,5-Dimethyl-1,2,4-triazol-3-yl)methyl]-N-[1-(fluoromethyl)cyclopropyl]-3-[(3-methylisoxazol-5-yl)methyl]-2,4-dioxo-quinazoline-6-sulfonamide], the results for the concentration for half-maximal inhibition (IC50) on Human Full Length PARG and in the assay with PARG in HeLa cell line (Homo sapiens) were 0.499 µM and 0.604 µM, respectively.
Turning to `Cc1cc(Cn2c(=O)c3cc(S(=O)(=O)NC4(CF)CC4)ccc3n(Cc3cnn(C)c3)c2=O)on1` [Example 555, N-[1-(Fluoromethyl)cyclopropyl]-3-[(3-methylisoxazol-5-yl)methyl]-1-[(1-methylpyrazol-4-yl)methyl]-2,4-dioxo-quinazoline-6-sulfonamide], the 50% inhibitory concentration (IC50) was determined as 0.049 µM on Human Full Length PARG and 0.086 µM with PARG in HeLa cell line (Homo sapiens).
Take `Cc1cc(Cn2c(=O)c3cc(S(=O)(=O)NC4(CF)CC4)ccc3n(Cc3nnc(C)o3)c2=O)on1` [Example 556, N-[1-(Fluoromethyl)cyclopropyl]-3-[(3-methylisoxazol-5-yl)methyl]-1-[(5-methyl-1,3,4-oxadiazol-2-yl)methyl]-2,4-dioxo-quinazoline-6-sulfonamide]: the half-maximal inhibitory concentration (IC50) at Human Full Length PARG is 0.348 µM; in the assay on PARG in HeLa cell line (Homo sapiens), 1.03 µM.
Consider `Cc1cc(Cn2c(=O)c3cc(S(=O)(=O)NC4(CF)CC4)ccc3n(Cc3ncnn3C)c2=O)on1` [Example 557, N-[1-(Fluoromethyl)cyclopropyl]-3-[(3-methylisoxazol-5-yl)methyl]-1-[(2-methyl-1,2,4-triazol-3-yl)methyl]-2,4-dioxo-quinazoline-6-sulfonamide], for which the IC50 turned out to be 0.368 µM on Human Full Length PARG and 0.857 µM in the assay with PARG in HeLa cell line (Homo sapiens).
Turning to `Cc1cc(Cn2c(=O)c3cc(S(=O)(=O)NC4(CF)CC4)ccc3n(Cc3noc(C)n3)c2=O)on1` [Example 558, N-[1-(Fluoromethyl)cyclopropyl]-3-[(3-methylisoxazol-5-yl)methyl]-1-[(5-methyl-1,2,4-oxadiazol-3-yl)methyl]-2,4-dioxo-quinazoline-6-sulfonamide], the IC50 worked out at 0.207 µM at Human Full Length PARG and 0.177 µM in the assay on PARG in HeLa cell line (Homo sapiens).
On to `Cc1cc(Cn2c(=O)c3cc(S(=O)(=O)NC4(CF)CC4)ccc3n(Cc3cocn3)c2=O)on1` [Example 559, N-[1-(Fluoromethyl)cyclopropyl]-3-[(3-methylisoxazol-5-yl)methyl]-1-(oxazol-4-ylmethyl)-2,4-dioxo-quinazoline-6-sulfonamide], for which the half-inhibitory concentration (IC50) worked out at 0.085 µM on Human Full Length PARG and 0.06 µM in the assay on PARG in HeLa cell line (Homo sapiens).
In the case of `Cn1cc(Cn2c(=O)c3cc(S(=O)(=O)NC4(CF)CC4)ccc3n(CCn3cccn3)c2=O)cn1` [Example 560, N-[1-(Fluoromethyl)cyclopropyl]-3-[(1-methylpyrazol-4-yl)methyl]-2,4-dioxo-1-(2-pyrazol-1-ylethyl)quinazoline-6-sulfonamide], the IC50 came out at 0.53 µM on Human Full Length PARG and 0.81 µM in the assay with PARG in HeLa cell line.
On to `Cc1cc(Cn2c(=O)n(Cc3cnn(C)c3)c(=O)c3cc(S(=O)(=O)NC4(CF)CC4)ccc32)[nH]n1` [Example 561, N-[1-(Fluoromethyl)cyclopropyl]-3-[(1-methylpyrazol-4-yl)methyl]-1-[(3-methyl-1H-pyrazol-5-yl)methyl]-2,4-dioxo-quinazoline-6-sulfonamide], for which the results for the IC50 on Human Full Length PARG and with PARG in HeLa cell line (Homo sapiens) were 0.095 µM and 0.57 µM, respectively.
As for `Cn1cc(Cn2c(=O)c3cc(S(=O)(=O)NC4(CF)CC4)ccc3n(Cc3ncnn3C)c2=O)cn1` [Example 562, N-[1-(Fluoromethyl)cyclopropyl]-3-[(1-methylpyrazol-4-yl)methyl]-1-[(2-methyl-1,2,4-triazol-3-yl)methyl]-2,4-dioxo-quinazoline-6-sulfonamide], the half-maximal inhibitory concentration (IC50) stood at 0.192 µM on Human Full Length PARG and 0.598 µM in the assay on PARG in HeLa cell line.
`Cn1cc(Cn2c(=O)c3cc(S(=O)(=O)NC4(CF)CC4)ccc3n(Cc3cncs3)c2=O)cn1` [Example 563, N-[1-(Fluoromethyl)cyclopropyl]-3-[(1-methylpyrazol-4-yl)methyl]-2,4-dioxo-1-(thiazol-5-ylmethyl)quinazoline-6-sulfonamide]: the half-maximal inhibitory concentration (IC50) on Human Full Length PARG was determined as 0.008 µM; in the assay on PARG in HeLa cell line (Homo sapiens), 0.066 µM.
For the compound `Cn1cc(Cn2c(=O)c3cc(S(=O)(=O)NC4(CF)CC4)ccc3n(Cc3cnco3)c2=O)cn1` [Example 564, N-[1-(Fluoromethyl)cyclopropyl]-3-[(1-methylpyrazol-4-yl)methyl]-1-(oxazol-5-ylmethyl)-2,4-dioxo-quinazoline-6-sulfonamide], the IC50 on Human Full Length PARG was 0.038 µM; in the assay with PARG in HeLa cell line (Homo sapiens), 0.127 µM.
Taken in the same sequence, the figures for `Cn1cc(Cn2c(=O)c3cc(S(=O)(=O)NC4(CF)CC4)ccc3n(Cc3nccn3C)c2=O)cn1` [Example 565, N-[1-(Fluoromethyl)cyclopropyl]-1-[(1-methylimidazol-2-yl)methyl]-3-[(1-methylpyrazol-4-yl)methyl]-2,4-dioxo-quinazoline-6-sulfonamide] were 0.156 µM and 0.558 µM.
Take `Cn1cc(Cn2c(=O)c3cc(S(=O)(=O)NC4(CF)CC4)ccc3n(CCc3ccccn3)c2=O)cn1` [Example 566, N-[1-(Fluoromethyl)cyclopropyl]-3-[(1-methylpyrazol-4-yl)methyl]-2,4-dioxo-1-[2-(2-pyridyl)ethyl]quinazoline-6-sulfonamide]: the half-maximal inhibitory concentration (IC50) at Human Full Length PARG came out at 0.687 µM; in the assay with PARG in HeLa cell line it was 0.562 µM.
For `Cc1nnc(Cn2c(=O)n(Cc3cnn(C)c3)c(=O)c3cc(S(=O)(=O)NC4(CF)CC4)ccc32)o1` [Example 567, N-[1-(Fluoromethyl)cyclopropyl]-1-[(5-methyl-1,3,4-oxadiazol-2-yl)methyl]-3-[(1-methylpyrazol-4-yl)methyl]-2,4-dioxo-quinazoline-6-sulfonamide], the half-maximal inhibitory concentration (IC50) at Human Full Length PARG is 0.225 µM; in the assay on PARG in HeLa cell line (Homo sapiens) it was 0.855 µM.
Consider `Cc1nc(Cn2c(=O)n(Cc3cnn(C)c3)c(=O)c3cc(S(=O)(=O)NC4(CF)CC4)ccc32)c[nH]1` [Example 568, N-[1-(Fluoromethyl)cyclopropyl]-1-[(2-methyl-1H-imidazol-4-yl)methyl]-3-[(1-methylpyrazol-4-yl)methyl]-2,4-dioxo-quinazoline-6-sulfonamide], for which the half-maximal inhibitory concentration (IC50) stood at 0.1 µM on Human Full Length PARG and 5.29 µM in the assay on PARG in HeLa cell line (Homo sapiens).
Taken in the same sequence, the figures for `Cc1cnc(Cn2c(=O)n(Cc3cnn(C)c3)c(=O)c3cc(S(=O)(=O)NC4(CF)CC4)ccc32)cn1` [Example 569, N-[1-(Fluoromethyl)cyclopropyl]-1-[(5-methylpyrazin-2-yl)methyl]-3-[(1-methylpyrazol-4-yl)methyl]-2,4-dioxo-quinazoline-6-sulfonamide] were 0.13 µM and 0.128 µM.
Regarding `Cn1cc(Cn2c(=O)c3cc(S(=O)(=O)NC4(CF)CC4)ccc3n(CC3(CO)CC3)c2=O)cn1` [Example 570, N-[1-(Fluoromethyl)cyclopropyl]-1-[[1-(hydroxymethyl)cyclopropyl]methyl]-3-[(1-methylpyrazol-4-yl)methyl]-2,4-dioxo-quinazoline-6-sulfonamide], the IC50 at Human Full Length PARG stood at 0.126 µM; with PARG in HeLa cell line (Homo sapiens), 0.238 µM.
`Cc1ccnc(Cn2c(=O)n(Cc3cnn(C)c3)c(=O)c3cc(S(=O)(=O)NC4(CF)CC4)ccc32)c1` [Example 571, N-[1-(Fluoromethyl)cyclopropyl]-3-[(1-methylpyrazol-4-yl)methyl]-1-[(4-methyl-2-pyridyl)methyl]-2,4-dioxo-quinazoline-6-sulfonamide]: the figures for the IC50 at Human Full Length PARG and in the assay on PARG in HeLa cell line (Homo sapiens) were 0.33 µM and 0.373 µM, respectively.
Take `Cc1ccc(Cn2c(=O)n(Cc3cnn(C)c3)c(=O)c3cc(S(=O)(=O)NC4(CF)CC4)ccc32)cn1` [Example 573, N-[1-(Fluoromethyl)cyclopropyl]-3-[(1-methylpyrazol-4-yl)methyl]-1-[(6-methyl-3-pyridyl)methyl]-2,4-dioxo-quinazoline-6-sulfonamide]: the IC50 was found to be 0.071 µM at Human Full Length PARG and 0.167 µM with PARG in HeLa cell line (Homo sapiens).
For the compound `Cn1cc(Cn2c(=O)c3cc(S(=O)(=O)NC4(CF)CC4)ccc3n(CCC#N)c2=O)cn1` [Example 574, 1-(2-Cyanoethyl)-N-[1-(fluoromethyl)cyclopropyl]-3-[(1-methylpyrazol-4-yl)methyl]-2,4-dioxo-quinazoline-6-sulfonamide], the IC50 came to 0.17 µM at Human Full Length PARG and 0.53 µM with PARG in HeLa cell line (Homo sapiens).
Take `Cn1cc(Cn2c(=O)c3cc(S(=O)(=O)NC4(CF)CC4)ccc3n(Cc3c[nH]cn3)c2=O)cn1` [Example 575, N-[1-(Fluoromethyl)cyclopropyl]-1-(1H-imidazol-4-ylmethyl)-3-[(1-methylpyrazol-4-yl)methyl]-2,4-dioxo-quinazoline-6-sulfonamide]: the concentration for half-maximal inhibition (IC50) on Human Full Length PARG was found to be 0.088 µM; in the assay with PARG in HeLa cell line (Homo sapiens) it was 1.57 µM.
With `CCn1cncc1Cn1c(=O)n(Cc2cnn(C)c2)c(=O)c2cc(S(=O)(=O)NC3(CF)CC3)ccc21` [Example 576, 1-[(3-Ethylimidazol-4-yl)methyl]-N-[1-(fluoromethyl)cyclopropyl]-3-[(1-methylpyrazol-4-yl)methyl]-2,4-dioxo-quinazoline-6-sulfonamide], the values for the IC50 on Human Full Length PARG and in the assay with PARG in HeLa cell line (Homo sapiens) were 0.042 µM and 2.16 µM, respectively.
With `Cn1cc(Cn2c(=O)c3cc(S(=O)(=O)NC4(CF)CC4)ccc3n(Cc3cnsc3)c2=O)cn1` [Example 577, N-[1-(Fluoromethyl)cyclopropyl]-1-(isothiazol-4-ylmethyl)-3-[(1-methylpyrazol-4-yl)methyl]-2,4-dioxo-quinazoline-6-sulfonamide], the half-maximal inhibitory concentration (IC50) stood at 0.024 µM at Human Full Length PARG and 0.036 µM with PARG in HeLa cell line.
